Columns and labels:
[1] = cited from earlier work
[2] = Description: Patient they are in the ninth month of pregnant without diabetes or hypertension or neuropathy antecedents. […] Twenty four hours later Amikacina IM every 12 hours was administered. […] It was decided to administrate nicotine in watery vehicle by sublingual pathway in a concentration of 3 mg/ml.
At the beginning 15 drops were administrated and 30 minutes later 10 drops more. […] Nicotine was administrated during 4 weeks in dosis of 5 drops by sublingual pathway every three hours.

[3] = 2 drops sublingual every hour
Text: Patient with post traumatic bleeding (hyphema). […] We indicated a dosis of 2 drops sublingual pathway every hour, for the hyphema was of 90% the vision was poor and the intraocular pressure was 40 mmHg despite last treatment. All medicine was suspended and began the new treatment.

[4] = twenty four hours later

Row | Structure (SMILES) | subyacent renal trauma by ischemia/reperfussion ([1]; in vivo) | distant pulmonary trauma ([1]; renal ischemia/reperfussion) | pain ([2]; nicotine 3 mg/ml in watery vehicle, sublingual, 15 drops then 10 drops 30 minutes later) | general physical state ([2]; nicotine 3 mg/ml sublingual) | recovery ([3]; after four weeks) | vision ([3]; three weeks later) | weight increase [4]
1 | C/C(=N\N=C(N)N)c1cc(NC(=O)CCCCCCCCC(=O)Nc2cc(/C(C)=N/N=C(N)N)cc(/C(C)=N/N=C(N)N)c2)cc(/C(C)=N/N=C(N)N)c1.Cl.Cl.Cl.Cl [CNI-1493] | does not have effect | partialy reduces | – | – | – | – | –
2 | CN1CCCC1c1cccnc1 (stereo not shown) [nicotine] | – | – | diminished significantly | improves in the dramatic form | 90% | 20/40 | 80 grams

Reference: patent US20090197921A1, “USE OF NICOTINE, ANALOGUES, THEREOF, PRECURSORS THEREOF OR D[…] IN THE TREATMENT OF VARIOUS PA[…] CAPABLE OF I[…] a-MSH AD[…] PROPHYLACTIC OR T[…]” (priority 2006, published 2009)
